According to patent publication US7605149B1, “Modulation of the phospholipase A2 pathway as a therapeutic” (University of South Florida, priority 1998, dated 2009):

What was measured:
[1] = tested on: NGF-β differentiated PC12 cells; test: [3H]AA release in neuronal cells; type: cell-based, rat; settings: FIG. 25
Protocol: Measurement of [^3H]AA release in neuronal cells (cultured differentiated PC12 cells). A rat pheochromocytoma cell line (PC12) was grown in Kahn's modification of F12 medium supplemented with 10% fetal calf serum, 100 U/mL penicillin and […] streptomycin. PC12 cells were seeded at 35,000 cells/well and differentiated with 60 ng/mL NGF-β for 5-6 days and then maintained with 5 ng/mL NGF-β thereafter. PC12 cells were treated with 0.4 μCi/mL of [^3H]AA for 18 h and were washed multiple times with 1 mL of complete medium to remove unincorporated [^3H]AA. Cells were then treated with 1 μM of Aβ1-40 or 40 U/mL of sPLA2 for 5 h. Cell culture supernatants were collected each hour following treatment and radioactivity was quantified as described above.
(§1) Statistical analysis. Analysis of variance (ANOVA) was used to analyze the data, with post-hoc comparisons of means carried out where appropriate by Sheffe's or Bonferonni's methods. Levene's test for equality of variance followed by t-test for independent samples was used for single mean comparisons. Alpha levels were set at 0.05 for all analyses. Analyses were performed using SPSS for Windows release 9.5.

[2] = tested on: p38 MAPK in differentiated PC12 cells; test: Immunolocalization of activated p38 MAPK in neuronal cells; type: cell-based, rat; settings: 10 and 20 min, FIG. 26
Protocol: Immunolocalization of activated p38 MAPK in neuronal cells. Cells were treated as described above, and were plated on glass cover-slips which had been soaked in 10 μg/mL of mouse laminin. Following differentiation, neuronal cells were treated with soluble Aβ1-40 (5 μM) or anasomycin (20 μM, a known stimulator of p38 MAPK) for 10 and 20 min, and immediately fixed in 4% paraformaldehyde in 0.1 M PBS, pH 7.4 for 30 min at 4° C. Cells were washed multiple times in PBS, and incubated for 3 h with a phospho-specific antibody recognizing active active p38 MAPK. Cells were then washed multiple times in PBS and incubated with a secondary HRP-conjugated antibody. Immunostaining was performed using the DAKO ABC kit, cells were counterstained with hematoxylin-eosin, and cells were then observed under a microscope.

[3] = tested on: intact rat aortae (aortic rings); test: [3H]AA release in intact rat aortae; type: cell-based; settings: 5 minutes, then ET-1 dose range
Protocol: Measurement of [^3H]AA release in intact rat aortae. Aortic rings (1.5 mm long) were placed in 1 mL of physiological saline solution (PSS, containing 130 mM NaCl, 5 mM KCl, 1.5 mM CaCl2, 1.2 mM MgCl2, 10 mM HEPES, and 10 mM glucose adjusted to pH 7.2 with NaOH) and incubated with 2.5 μCi of [^3H]AA (specific activity of 91.8 Ci/mmol) for 24 h at 4° C. Rat aortae were subsequently washed in 50 mL of Kreb's buffer and then subjected to the vasoactivity assay. Initial background [^3H]AA release was determined following 30 min of equillibration for each aortic ring prior to treatment by removing 200 μL of Kreb's buffer (total volume of 7 mL each) from each bath, and measuring radioactivity (in cpm) after the addition of 1 mL of scintillant (EcoLume, ICN Inc., Calif.) using a liquid scintillation counter (1209 Rackbeta, WALLAC Inc., Md.). Subsequently, aortic rings were treated with sPLA2 alone or Aβ1-40 (1 μM) in the presence or absence of a MEK1/2 inhibitor (PD 98059) or a cPLA2 inhibitor (AACOCF3) for 5 min, or went untreated for the same length of time (control). Quantification of [^3H]AA release was then preformed as described above. All aortic rings were then subjected to a dose range of ET-1 (1, 2.5, and 5 nM), and radioactivity was measured 5 min after the first dose of ET-1 (1 nM), and 20 min after the second (2.5 nM) and third (5 nM) doses of ET-1. Radioactivity incorporated into each ring was determined by placing the aortic ring in 1 mL of scintillant and assaying as described above. Results are expressed as the means ±1 SE of the percentage of [^3H]AA incorporated for each aortic ring [([^3H]AA released—[^3H]AA initial background)/incorporated [^3H]AA].
as §1, with “methods. As previously described (Paris et al., Neurosci Lett, 1998), a significant interactive term by ANOVA was taken as evidence that both drug x and Aβ are modulating a common signal transduction pathway. […]” for “methods.”

N9 microglia = test: [3H]AA release in cultured microglial cells; type: cell-based, murine; settings: FIG. 24
Protocol: Measurement of [^3H]AA release in cultured cells. Microglial cells were cultured as described above, seeded at 50,000 cells/well in 6-well plates (Falcon, France), and incubated with 0.4 μCi/mL [^3H]AA for 18 h. Cells were washed multiple times with 1 mL of complete medium and were then treated with 1 μM of Aβ1-40 or 10 U/mL of sPLA2 for 5 h. Cell culture supernatants were collected each hour following treatment and radioactivity was quantified as described above.
as §1, with “methods. As previously described (Paris et al., Neurosci Lett, 1998), a significant interactive term by ANOVA was taken as evidence that both drug x and Aβ are modulating a common signal transduction pathway. […]” for “methods.”

[4] = tested on: rat aortae (aortic rings); test: Vessel bath vasoactivity assay: ET-1-induced vasoconstriction of rat aortic rings and its enhancement by Aβ or sPLA2; type: cell-based
Protocol: Vessel experiments. Freshly dissected aortae were prepared from normal male Sprague-Dawley rats (7-8 months old, purchased from Zivic Miller, Zelienople, Pa.) as previously described by Paris et al, Exp Neurol 1998 and Exp Neurol 1999. Rat aortae were segmented into rings and suspended in Kreb's buffer on hooks connected to a tensiometer linked to a MacLab system. Aortic rings were equilibrated for 2 hours, in 7 mL tissue baths containing Kreb's buffer oxygenated with 95% O2: 5% CO2, and thermoregulated to 37° C. A baseline tension of 2 g was applied to each ring, and the first set of aortic rings was pretreated with the various compounds named above either alone or in combination with Aβ peptides. After 5 minutes of incubation in the presence or absence of Aβ, this first set of vessels was subjected to a dose range of ET-1 (from 1 nM to 5 nM). A second set of vessels was treated with 1 μM of Aβ peptides prior to the addition of ET-1. A third set (control) received only ET-1 treatment. Each ET-1 dose was added only after the constriction response to the previous dose had reached a plateau. In all cases the means ±1 standard error (SE) of the percentage vasoconstriction increase over baseline were determined for each dose of ET-1 used.
as §1, with “methods. As previously described (Paris et al., Neurosci Lett, 1998), a significant interactive term by ANOVA was taken as evidence that both drug x and Aβ are modulating a common signal transduction pathway. […]” for “methods.”

[5] = tested on: rat aortae (aortic rings); settings: freshly solubilized; previously shown (Crawford et al., 1998); cited from earlier work
N9 microglial cells = test: Leukotriene B4 (LTB4) ELISA on microglial cell supernatants; type: cell-based, murine; settings: 500 nM, 18 hours; FIG. 23
Protocol: Leukotriene -B4 (LTB4) enzyme-linked immunoabsorbant assay (ELISA). Quantitative determination of LTB4 levels was made using a competitive binding ELISA (R&D Systems, Minneapolis, Minn.) designed to measure LTB4 in cell culture supernatants (as described in Paris et al., Exp Neurol 1999). A murine microglial cell line (N9) was provided by Dr. Paola Ricciardi-Castagnoli (Cellular Pharmacology Center, Milan, Italy) and were grown in RPMI medium supplemented with five percent fetal calf serum, 2 mM glutamine, 100 U/mL penicillin, […] streptomycin and 0.05 mM 2-mercaptoethanol. Microglial cells were seeded at 50,000 cells/well in 6-well plates (Falcon, France) and treated with Aβ1-40 (500 nM), drugs which oppose the PLA2/AA/5-LOX/COX-2 pathway, or untreated (control) and incubated for 18 hours. Cell supernatants were then collected and diluted 10-fold in assay buffer. 50 μL of diluted samples were then used in the assay, and each sample was assayed in duplicate. Manipulations were performed in accordance with the manufacturer's instruction. A spectramax 250 spectrophotometer (Molecular Devices, San Diego, USA) was used to measure absorbance at 405 nm and a standard curve was plotted using a 4-parameter model.
as §1, with “methods. As previously described (Paris et al., Neurosci Lett, 1998), a significant interactive term by ANOVA was taken as evidence that both drug x and Aβ are modulating a common signal transduction pathway. […]” for “methods.”

Aβ1-40: soluble β-amyloid peptide containing forty amino acids, obtained from QCB
[3H]AA release in neuronal cells ([1]; 1 μM for 5 h): stimulates AA release from neuronal cells | activation of p38 MAPK (phospho-specific immunostaining) ([2]; Aβ1-40 5 μM): increases the phosphorylation of p38 MAPK | [3H]AA release from aortic rings ([3]; Aβ1-40 1 μM, FIG. 21): enhances the release of [^3H]AA from aortic rings | [3H]AA release in N9 microglia (N9 microglia; 1 μM for 5 h): stimulates AA release from N9 microglia | enhancement of ET-1-induced vasoconstriction versus Aβ-free condition ([4]; 50 nM dose, across 2.5 nM and 5 nM ET-1, FIG. 1): significant difference | duration of ET-1-induced vasoconstriction (vasotension t=0 to 10 minutes after 5 nM ET-1) ([4]; 1 μM, 5 minutes prior to ET-1 (1, 2.5, 5 nM), FIG. 2): induces a long-lasting vasoconstriction | lowest dose giving sustained constriction / enhancement of ET-1-induced vasoconstriction ([4]; freshly solubilized peptide): ≤ 50 nM | magnitude of constriction induced by ET-1 in isolated mammalian vessels [5]: increase the magnitude of constriction induced by ET-1 | microglial LTB4 release (N9 microglial cells): increased release of LTB4

type I sPLA2: secretory porcine pancreatic PLA2 (type I sPLA2), purchased from Sigma
[3H]AA release in neuronal cells ([1]; 40 U/mL for 5 h): induces the release of [^3H]AA | [3H]AA release from aortic rings ([3]; 10 U/mL, FIG. 20): increased release of [^3H]AA | [3H]AA release in N9 microglia (N9 microglia; 10 U/mL for 5 h): induces the release of [^3H]AA | effect on ET-1-induced vasoconstriction ([4]; 1 U/mL, 5 minutes prior to ET-1 dose range, FIG. 6): able to enhance the vasoconstriction induced by ET-1 | intrinsic vasoactive properties ([4]; added directly into the vessel bath, without ET-1): does not display intrinsic vasoactive properties

COc1ccc(C[C@H]2NC[C@H](O)[C@H]2OC(C)=O)cc1 [anisomycin]
activation of p38 MAPK (phospho-specific immunostaining) ([2]; 20 μM): brown immunostaining is intensified, and a strong nuclear staining is evident
